Laboratory results published in patent US12605449B2, “Drug-clay mineral complex containing phospholipid and oral administration composition including same” (Korea Institute of Geoscience and Mineral Resources, priority 2020, dated 2026).

Assays:
Type in all cases: physicochemical
[1] = Carbamazepine drug release test according to pH; conditions: regardless of pH
Description: In addition, a pattern released at a constant rate at all pHs was shown, and since the release rate of carbamazepine is higher at high pH, it may be inferred that the drug may be easily released from the lower digestive tract.

[2] = Camptothecin adsorption to bentonite (supernatant concentration); conditions: camptothecin 0.25 mg/mL in 1 N HCl
Protocol: The concentration of camptothecin (Tokyo Chemical Industry, TCI) was made at 0.25 mg/mL using a 100% 1 N HCl solvent and the drug and bentonite reacted with each other at various ratios shown in Table 6 below, and then the drug amount adsorbed to bentonite was indirectly measured by measuring the drug concentration of the supernatant.

[3] = Ciprofloxacin adsorption to bentonite (pH and concentration dependence)
[4] = Ciprofloxacin release test using a dialysis membrane (FaSSGF, FaSSIF, FaSSCoF); conditions: complex weight ratio 1:5
Description: The release pattern according to the pH of the complex was confirmed through a release test using a dialysis membrane.

NC(=O)N1c2ccccc2C=Cc2ccccc21 [Carbamazepine, 5H-dibenzo[b,f]azepine-5-carboxamide]
time within which most of the drug was released [1]: ≤ 2 h

CC[C@@]1(O)C(=O)OCc2c1cc1n(c2=O)Cc2cc3ccccc3nc2-1 [Camptothecin, (S)-4-ethyl-4-hydroxy-1H-pyrano-[3′,4′: 6,7]indolizinol[1,2-b]quinoline-3,14 (4H, 12H)-dione]
Supernatant concentration [2]: 49.7 ± 0.3 µg/mL

O=C(O)c1cn(C2CC2)c2cc(N3CCNCC3)c(F)cc2c1=O [ciprofloxacin, 1-cyclopropyl-6-fluoro-1,4-dihydro-4-oxo-7-(1-piperazinyl)-quinoline-3-carboxylic acid]
amount of drug adsorption per bentonite mass ([3]; bentonite 0.5 mg/mL, ciprofloxacin 50-500 μg/mL, pH 1): ≤ 300 mg/g
adsorption amount of ciprofloxacin according to pH ([3]; ciprofloxacin 0.5 mg/mL, bentonite 5 mg/mL, pH 1 to 10, decreased above pH 7): high adsorption
drug adsorption rate ([3]; weight ratio of ciprofloxacin and bentonite 1:5): ~100%
release pattern in FaSSGF, FaSSIF, FaSSCoF [4]: rapidly released under FaSSGF
